Patent US20220125746A1, “METHOD OF PREVENTING OR TREATING TREATMENT-INDUCED GASTROINTESTINAL INJURY” (priority 2019, published 2022)
Where a name gives a salt, the structure may show the parent alone.

What was measured:
C57BL/6J mice = experiment: Survival and GI injury after three daily doses of CPT-11; format: in vivo, mouse
Text: Immediately after sacrifice, about 10-cm portion of the jejunum was removed and carefully rinsed with ice-cold saline. The tissue was opened longitudinally and tacked to a foam board for fixation overnight in 10% formalin. Tissues were then rolled up into “swiss rolls” and embedded in paraffin. For tumor analysis, flank tumors were removed, measured, and cut into pieces for either formalin fixation or flash freezing in a dry ice/ethanol bath. Tissue sections (5 um) were deparaffinized and rehydrated through graded ethanols. Histological analysis was performed by hematoxylin and eosin (H&E) staining.
; CPT-11). […] . […] BH3-only proteins BIM and NOXA were not induced by CPT-11 or affected by Puma KO (FIG. 8F). […] . […] . Histological analysis confirmed lethal GI injury in WT and p53 KO mice on day 5, showing severe loss of crypts and shortening of villi, which was abrogated in Puma KO mice (FIG. 1F).

[1] = PUMAi distribution in intestinal mucosa and plasma (LC-MS/MS); format: in vivo, mouse; details: for PUMAi concentration in intestinal mucosa compared to -1.5 hours: 10 mg/kg i.p.
Procedure: Acetonitrile and water (all HPLC grade) were purchased from Fisher Scientific. Formic acid and trifluoroacetic acid was purchased from Sigma-Aldrich. Stock solutions of PUMAi and [D5]-PUMAi internal standard were prepared at 1 mg/mL in DMSO, diluted 10 times in acetonitrile, and then stored at −80° C. On the day of the assay, the solution was serially diluted (in 10-fold steps) in acetonitrile to obtain the lower calibration working solutions of 0.01 and 0.001 mg/mL. These calibration working solutions were diluted in mouse plasma (Lampire Biological Laboratories, Inc.) to produce the following analyte concentrations: 10, 30, 50, 100, 300, 500, 1000, 3000 ng/mL. For each calibration series, zero (containing 10 ng/mL of internal standard) and blank samples were also prepared from 50 μL of Lampire plasma. Quality control (QC) stock solutions were diluted in Lampire mouse plasma to produce the following QC samples: QC Low (QCL) 20 ng/mL; QC Mid (QCM) 200 ng/mL, and QC High (QCH) 2500 ng/mL.
To extract PUMAi, we added 10 μL of internal standard solution (1000 ng/mL [D5]-PUMAi in acetonitrile) to 50 μL of plasma sample in a micro centrifuge tube. […]
The mass spectrometer was operated in ESI positive mode using MRM detection. […] The mass transitions monitored were m/z 331>143 for PUMAi and 345>157 for the internal standard.
To assess recovery from plasma, we compared areas from control plasma spiked with 1000 ng/mL of PUMAi, prepared as described above, with the areas obtained with a neat solution of PUMAi in water. Intestinal mucosa was analyzed after dilution in control plasma to within the calibration range. […]
PUMAi {1-[4-(2-hydroxyethyl)-1-piperazinyl]-3-(2-naphthyloxy)-2-propanol dihydrochloride} was synthesized by ChemBridge, with a purity of 95% by HPLC-MS, and an internal isotopic standard PUMAih7 (D5, five internal hydrogens replaced by deuterium) was synthesized by Alsachim, with purity approaching 100% by HPLC-MS. […] Detailed methods on LC-MS/MS (liquid chromatography-tandem MS) quantitation of PUMAi are found in Supplementary Materials and Methods.

intestinal crypts = experiment: CPT-11-induced intestinal crypt apoptosis in mice (TUNEL, active caspase-3)
Procedure: Puma+/+ (WT) and Puma−/− (Puma KO) mice (52) were generated in-house by heterozygote breeding. WT and Puma KO alleles were genotyped from genomic DNA isolated from tail snips, as described (52). p53−/− (p53 KO) mice were purchased from the Jackson Laboratory. […] All strains are in or have been backcrossed with the C57BL/6 background for more than 10 generations (F10). Mice were housed in microisolator cages in a room illuminated from 07:00 to 19:00 hours (12:12-hour light/dark cycle), with access to water and chow ad libitum.
Rehydrated sections were treated with 3% hydrogen peroxide (immunochemistry only), followed by antigen retrieval for 10 min in boiling 0.1 M citrate buffer (pH 6.0) with 1 mM EDTA. Apoptosis was analyzed by TUNEL staining with the ApopTag Peroxidase In Situ Apoptosis Detection kit (Chemicon International) according to the manufacturer's instructions.
Active caspase 3 IHC. Sections were deparaffinized and rehydrated through graded ethanols. Rehydrated sections were then treated with 3% hydrogen peroxide, followed by antigen retrieval for 10 minutes in boiling 0.1 M citrate buffer (pH 6.0) with 1 mM EDTA. Non-specific antibody binding was blocked using 20% goat serum (Invitrogen) at room temperature for 30 minutes.

[2] = test system: colon cancer cell line HCT-116; experiment: PUMA-induced apoptosis inhibition in HCT-116
Procedure: PUMAi was added to cells at 25 uM at the same time as CPT.
A minimum of 300 cells per treatment were analyzed in triplicate.

SMILES: OCCN1CCN(CC(O)COc2ccc3ccccc3c2)CC1 (stereo not shown) [PUMAi, 1-[4-(2-hydroxyethyl)-1-piperazinyl]-3-(2-naphthyloxy)-2-propanol dihydrochloride]
- survival at the LD90 of CPT-11 (C57BL/6J mice; CPT-11 215 mg/kg per day x3, PUMAi 10 mg/kg 2 h before each dose, WT mice): 70%
- CPT-11-induced lethality (C57BL/6J mice; CPT-11 180, 215, 250 mg/kg/day x3, PUMAi 10 mg/kg): decreased CPT-11-induced lethality at three different doses
- GI injury by histological analysis (C57BL/6J mice; day 5, CPT-11 215 mg/kg per day x3, compared to WT mice): reduced GI injury
- PUMAi concentration in intestinal mucosa compared to -1.5 hours ([1]; +1 hour of CPT-11 administration): 67%
- PUMAi concentration in intestinal mucosa compared to -1.5 hours ([1]; +6 hours of CPT-11 administration): 30%
- PUMAi concentration in plasma over time ([1]; -1.5, +1, +6 hours, compared with intestinal mucosa): dropped more quickly in the plasma
- crypt apoptosis, PUMAi given after CPT-11 (intestinal crypts; PUMAi 10 mg/kg 1 hour after CPT-11 200 mg/kg, 6 h): still reduced apoptosis effectively
- TUNEL and active caspase-3 staining in crypts (intestinal crypts; PUMAi 10 mg/kg 2 h before CPT-11 200 mg/kg, 6 and 24 h, WT mice): reduced TUNEL and active caspase-3 staining preferentially in the CBCs
- crypt apoptosis in Puma KO mice (intestinal crypts; Puma KO mice, CPT-11 200 mg/kg, 6 h): did not further reduce crypt apoptosis
- Apoptosis inhibition of HCT-116 [2]: 17%
